# In patent US20080171779A1, “USE OF 5-HT6 ANTAGONISTS TO PREVENT RELAPSE INTO ADDICTION” (Solvay Pharmaceuticals B.V., priority 2007, published 2008):
# How the values were obtained:
# [1] = test system: cue-induced relapse of alcohol seeking in the rat; assay: Stimulus (cue) induced reinstatement of extinguished self-administration of alcohol; format: in vivo; conditions: for Nose-pokes after an alcohol induced cue, former alcoholics / Nose-pokes after an alcohol induced cue, total abstainers: 45 min test, mean ± spread; for amount of active nose-pokes versus placebo, cue induced alcohol seeking: one-way ANOVA, Fisher's LSD; for inactive nose-pokes versus placebo, cue induced alcohol seeking: all tested dosages
# Procedure: After learning to consume alcohol 12% (v/v) in a two-bottle paradigm, rats were trained to self-administer alcohol in the operant cage. When response-rates were stable, animals were withdrawn from alcohol for three weeks. Subsequently, the effect of 5-HT6 antagonists on relapse was tested by re-exposing the animals to alcohol-related stimuli.
# (§1) Animals: 64 male Wistar rats, weighing 280-300 g at arrival (Harlan, the Netherlands) were used for testing compound 33. The animals were housed individually in a temperature—(T=22±2° C.) and humidity (rel %=60±5%) controlled room on a reversed 12 h light-dark cycle (lights off at 7:00 AM) with water available ad libitum. The animals were on a diet of 18 gr chow per animal per day. The experiment started after one week of acclimatization and lasted 12-14 weeks.
# Drug Self-administration: All training and testing was conducted in 16 operant chambers (30.5×24.1×29.2 cm) surrounded by sound attenuating ventilated cubicles (Med Associates, Georgia, Vt.). The chambers were fitted with a grid floor, a red dim house light and opposite the house light an intelligence panel. In the intelligence panel there were two nose-poke holes (Ø2.5 cm) located 5.5 cm above the grid floor and 16 cm separated from each other. A red dim stimulus light was located 12 cm above both nose-poke holes. Between the two nose-poke holes, a receptacle was located, in which the alcohol was delivered. High above the receptacle was a sonalert tone module. […] The alcohol drop was delivered by an infusion pump (PHM-100, MedAssociates, Georgia, Vt.) in 4.2 seconds During alcohol delivery, the active nose-poke hole was illuminated and a tone (±65 dB) was presented by the sonalert tone module for 2 seconds. The receptacle was illuminated for 5 seconds (discrete cues). The stimulus light switched off for 15 seconds (discriminative cue). In this 15 second time-out period, nose-poking was without consequences.
# Animals were selected for further testing if they consumed alcohol doses (in the FR4-schedule) above the literature described pharmacological effective dose of 0.3 g/kg/hr (Linseman, 1987). Subsequently, when response behavior on the FR4-schedule was stable, there was a 3 week period of withdrawal in the homecage.
# Test for reinstatement: After the withdrawal period, each animal was tested twice for cue induced reinstatement with a week of further extinction training and wash-out in between. Animals were randomly distributed over the different experimental groups and never received the same treatment twice. On test days, the animals were placed in the operant cage for three or four hours (test day 1: 4 hr; test day 2: 3 hr) in absence of alcohol and alcohol related stimuli (discrete and discriminative cues) to extinguish response behavior. One hour before the end of this extinction session, the animal was removed from the operant cage and treated with a 5-HT6 antagonist. After drug administration the animals was placed back into the operant chamber, where the session continued. When the last hour had passed, the cue-induced relapse test session started (duration: 45 min). During this test, the experimental conditions were similar to the conditions during training on an FR4-schedule, with the exceptions that 1) at the beginning of the session, a 12% alcohol drop of 0.20 ml was available (delivered in the receptacle by the experimenter at the begin of the test session) and 2) after every 4th response, only cues were presented (no alcohol was delivered). Tests were operated and raw data was saved by the MED-PC IV program (Tatham, 1989).
# Drugs: Alcohol 12% (v/v) was made from alcohol 96% and diluted with tap water. Compound 33 was suspended in 5% Tween 80, 0.25% methylcellulose, 5% PEG 400 and H2O HPLC (65% of end volume). Ethanol was added and evaporated under N2-gas. The pH was adjusted to 5.8. In the range: 0, 3,10, and 30 mg/kg, compound 33 was administered intraperitoneally, 15 minutes before testing. The injection volume was 2 ml/kg. […]
# [2] = test system: cue-induced relapse of alcohol seeking in the rat; assay: as above; format: in vivo; conditions: 20 mg/kg
# [3] = test system: relapse behavior induced by conditioned drug cues (cocaine, heroin, nicotine, alcohol); conditions: cues previously associated with cocaine, nicotine and alcohol delivery; cited from earlier work
# [4] = test system: cue-induced relapse of nicotine seeking in the rat; assay: Stimulus (cue) induced reinstatement of extinguished self-administration of nicotine; format: in vivo; conditions: for Nose-pokes after a nicotine induced cue, total abstainers / Nose-pokes after a nicotine induced cue, former nicotine addicts: 30 min test, mean ± spread; for Nose-pokes after a nicotine induced cue, former nicotine addicts: column 'former nicotine addicts'
# Excerpt: Using a very similar test protocol, 5-HT6 antagonists were also found to suppress cue-induced nicotine-seeking behavior. Thus 5-HT6 antagonists are believed useful for the preparation of medicaments for preventing relapse into addiction, in particular relapse into addiction to substances of abuse, including opiates, hallucinogens, inhalants, phencyclidine, amphetamines, cocaine, cannabis, nicotine, and alcohol, medicaments for preventing relapse to addiction to certain medicines, including sedatives, hypnotics and anxiolytics, and medicaments for preventing relapse to certain addictive behaviors, including gambling.
# as §1, with “32” for “64”, “water and food” for “water”, “libitum.” for “libitum. The animals were on a diet of 18 gr chow per animal per day.”
# Surgery: after a week of acclimatization, intravenous silicon catheters are implanted in the right jugular vein under isoflurane anesthesia as described previously in De Vries, 1999.
# Drug Self-administration: All training and testing was conducted in 16 operant chambers (30.5×24.1×29.2 cm) surrounded by sound attenuating ventilated cubicles (Med Associates, Georgia, Vt.). The chambers were fitted with a grid floor, a red dim house light and opposite the house light an intelligence panel. In the intelligence panel there were two nose-poke holes (Ø2.5 cm) located 5.5 cm above the grid floor and 16 cm separated from each other. A red dim stimulus light was located 12 cm above both nose-poke holes. A tone module was located at the top of the center of the intelligence panel. During self-administration, animals were connected to an infusion pump (PHM-100, Med Associates, Georgia, V.T.) by a swivel to receive intravenous infusions of nicotine (40 μg/kg/inf). […] During this infusion, the active nose poke hole was illuminated (yellow light) and an audio stimulus was presented (tone of 2900 Hz and 65 dB for 2 seconds) (discrete cues). From the moment of nicotine delivery, the stimulus light switched off for 15 seconds (discriminative cue). In this time-out period, nose poking was without consequences.
# Acquisition, withdrawal and reinstatement: Behavioral training started 5-7 days after surgery. […] When response behavior was stable, animals were selected for further testing if they earned at least 5 rewards during the last three sessions of the FR3 schedule and the reward delivery was equal distributed over the session. Subsequently, responding for nicotine was extinguished. In this extinction phase (11 daily sessions of 60 min), the animals were placed in the operant chambers, but the nicotine and nicotine related stimuli (discrete and discriminative cues) were not available. Finally, the animals were tested for cue-induced reinstatement. During this test (duration of 30 minutes), the experimental conditions were similar to the conditions during training on an FR3-schedule, with the exception that no nicotine was available and the animals were not connected to the swivel.
# Tests for cue-induced reinstatement were conducted twice; between these two test days, there was a week of further extinction training (wash-out period). During cue-induced reinstatement, effects of 5-HT6 antagonists were studied on output measurements.
# Drugs: Nicotine for self-administration: (−) nicotine hydrogen tartrate salt (Sigma, St Louis, Mo.) was dissolved in sterile saline. The pH of the solution was adjusted to +/−7.4 with diluted NaOH. Nicotine dose was expressed as free base weight. Compound 33 was suspended in 5% of end volume Tween 80. Ethanol was added and evaporated under N2-gas for 30 minutes. […] After the pH was adjusted to 5.5, 10% of end volume H2O HPLC was added. […]
smiles,measurement,setting,value
"COc1ccc(NS(=O)(=O)c2sc3ccc(Cl)cc3c2C)cc1N1CCNCC1.Cl [SB-271046, reference compound]","Nose-pokes after an alcohol induced cue, former alcoholics",[1]; 3 mg/kg,11.9 ± 5.4
same,"Nose-pokes after an alcohol induced cue, total abstainers",[1]; 3 mg/kg,1.1 ± 0.5
same,"Nose-pokes after an alcohol induced cue, total abstainers",[1]; 10 mg/kg,0.9 ± 0.5
same,"amount of active nose-pokes versus placebo, cue induced alcohol seeking","[1]; 10 mg/kg, p<0.05",significantly lower
same,"inactive nose-pokes versus placebo, cue induced alcohol seeking",[1],no significant difference
same,relapse into addiction (alcohol),[2],prevented from relapse into addiction
same,"Nose-pokes after an alcohol induced cue, total abstainers","[2]; 'total abstainers', 45 min test, mean ± spread",2.7 ± 1.9
same,"amount of active nose-pokes versus placebo, cue induced alcohol seeking","[2]; one-way ANOVA, Fisher's LSD, p<0.005",significantly lower
Cc1c(C(=O)NN2CCCCC2)nn(-c2ccc(Cl)cc2Cl)c1-c1ccc(Cl)cc1 [SR141716A],relapse behavior induced by conditioned drug cues,[3],able to selectively reduce relapse behavior
CCN/C(=N\S(=O)(=O)c1cccc(Cl)c1)N1CC(C)(C)C=N1 [compound 33],"Nose-pokes after an alcohol induced cue, former alcoholics",[1]; 3 mg/kg,27.0 ± 6.1
same,"Nose-pokes after an alcohol induced cue, total abstainers",[1]; 3 mg/kg,1.1 ± 0.2
same,"Nose-pokes after an alcohol induced cue, former alcoholics",[1]; 10 mg/kg,23.5 ± 4.2
same,"Nose-pokes after an alcohol induced cue, total abstainers",[1]; 10 mg/kg,2.2 ± 1.5
same,relapse into addiction (alcohol),[1]; 30 mg/kg,prevented from relapse into addiction
same,"Nose-pokes after an alcohol induced cue, total abstainers",[1]; 30 mg/kg,0.8 ± 0.1
same,"amount of active nose-pokes versus placebo, cue induced alcohol seeking","[1]; 30 mg/kg, p<0.005",significantly lower
same,"inactive nose-pokes versus placebo, cue induced alcohol seeking",[1],no significant difference
same,"Nose-pokes after a nicotine induced cue, total abstainers",[4]; 3 mg/kg intraperitoneally,4.58 ± 1.17
same,"Nose-pokes after a nicotine induced cue, former nicotine addicts",[4]; 3 mg/kg intraperitoneally,24.83 ± 3.20
same,"Nose-pokes after a nicotine induced cue, total abstainers",[4]; 10 mg/kg intraperitoneally,3.00 ± 1.04
same,"Nose-pokes after a nicotine induced cue, former nicotine addicts",[4]; 10 mg/kg intraperitoneally,28.50 ± 7.40
same,relapse into addiction (nicotine),[4]; 30 mg/kg,prevented from relapse into addiction
same,"Nose-pokes after a nicotine induced cue, total abstainers",[4]; 30 mg/kg intraperitoneally,1.75 ± 0.74
same,"amount of active nose-pokes versus placebo, cue induced nicotine seeking","[4]; 30 mg/kg, one-way ANOVA, Fisher's LSD, p<0.05",significantly lower
same,"inactive nose-pokes versus placebo, cue induced nicotine seeking",[4]; all tested dosages,no significant difference
